The source made the active and inactive calls. The rule behind the calls is not given here.
Tested on: rodent lifetime carcinogenesis bioassay, tumor incidence TD50
Test: chronic cancer bioassays in animals – CPDB, compiled studies (AID 1745844)

In the case of `O=CC(O)C(O)C(O)C(O)COC1OC(COC2OC(CO)C(O)C(O)C2O)C(O)C(O)C1O` (stereo unspecified), the TD50 (rat, strain ACI, females, in feed, site: urinary bladder, lesion: one or several types, types not named, dosed 68 weeks, study length 68 weeks) is reported as 1640 mg/kg/day (inactive) and the TD50 (rat, strain ACI, males, in feed, site: urinary bladder, lesion: one or several types, types not named, dosed 68 weeks, study length 68 weeks) is reported as 3190 mg/kg/day (inactive).
`ClCC=CCCl` gave a TD50 (rat, strain Charles River CD (Sprague-Dawley), females, inhaled, site: nasal cavity, lesion: adenoma, dosed 51 weeks, study length 104 weeks) of 13 mg/kg/day, a TD50 (rat, strain Charles River CD (Sprague-Dawley), females, inhaled, site: nasal cavity, lesion: adenoma, dosed 104 weeks, study length 104 weeks) of 0.695 mg/kg/day and a TD50 (rat, strain Charles River CD (Sprague-Dawley), females, inhaled, site: nasal cavity, lesion: malignant tumor, dosed 51 weeks, study length 104 weeks) of 0.242 mg/kg/day. The TD50 (rat, strain Charles River CD (Sprague-Dawley), females, inhaled, site: nasal cavity, lesion: malignant tumor, dosed 104 weeks, study length 104 weeks) was 8.32 mg/kg/day, the TD50 (rat, strain Charles River CD (Sprague-Dawley), males, inhaled, site: nasal cavity, olfactory epithelium, lesion: adenocarcinoma, dosed 82 weeks, study length 104 weeks) was 2 mg/kg/day and the TD50 (rat, strain Charles River CD (Sprague-Dawley), males, inhaled, site: nasal cavity, olfactory epithelium, lesion: carcinoma, dosed 82 weeks, study length 104 weeks) was 8.88 mg/kg/day. The TD50 (rat, strain Charles River CD (Sprague-Dawley), males, inhaled, site: nasal cavity, olfactory epithelium, lesion: carcinosarcoma, dosed 82 weeks, study length 104 weeks) was 8.88 mg/kg/day, the TD50 (rat, strain Charles River CD (Sprague-Dawley), males, inhaled, site: nasal cavity, olfactory epithelium, lesion: malignant tumor, dosed 82 weeks, study length 104 weeks) was 1.27 mg/kg/day and the TD50 (rat, strain Charles River CD (Sprague-Dawley), males, inhaled, site: nasal cavity, respiratory epithelium, lesion: adenoma, dosed 82 weeks, study length 104 weeks) was 0.653 mg/kg/day. It also gave a TD50 (rat, strain Charles River CD (Sprague-Dawley), males, inhaled, site: nasal cavity, lesion: adenoma, dosed 51 weeks, study length 104 weeks) of 23.2 mg/kg/day, a TD50 (rat, strain Charles River CD (Sprague-Dawley), males, inhaled, site: nasal cavity, lesion: adenoma, dosed 104 weeks, study length 104 weeks) of 0.313 mg/kg/day and a TD50 (rat, strain Charles River CD (Sprague-Dawley), males, inhaled, site: nasal cavity, lesion: malignant tumor, dosed 51 weeks, study length 104 weeks) of 0.169 mg/kg/day. The TD50 (rat, strain Charles River CD (Sprague-Dawley), males, inhaled, site: nasal cavity, lesion: malignant tumor, dosed 104 weeks, study length 104 weeks) was 1.04 mg/kg/day and the TD50 (rat, strain Charles River CD (Sprague-Dawley), males, inhaled, site: nasal cavity, lesion: several types, types named in the paper, dosed 82 weeks, study length 104 weeks) was 0.467 mg/kg/day.
`Clc1cc2c(cc1Cl)Oc1cc(Cl)c(Cl)cc1O2` was tested, and the TD50 (mouse, strain B6C3F1, females, by gavage, site: all sites, lesion: leukemia + lymphoma, dosed 104 weeks, study length 104 weeks) was 0.000709 mg/kg/day, the TD50 (mouse, strain B6C3F1, females, by gavage, site: all sites, lesion: lymphoma, histiocytic type, dosed 104 weeks, study length 104 weeks) was 0.000705 mg/kg/day and the TD50 (mouse, strain B6C3F1, females, by gavage, site: all sites, lesion: lymphoma, dosed 104 weeks, study length 104 weeks) was 0.000682 mg/kg/day. It also gave a TD50 (mouse, strain B6C3F1, females, by gavage, site: any site (literature study), lesion: several types, types named in the paper, dosed 104 weeks, study length 104 weeks) of 0.000494 mg/kg/day, a TD50 (mouse, strain B6C3F1, females, by gavage, site: liver + thyroid gland, lesion: hepatocellular adenoma + hepatocellular carcinoma + follicular-cell adenoma, dosed 104 weeks, study length 104 weeks) of 0.000526 mg/kg/day and a TD50 (mouse, strain B6C3F1, females, by gavage, site: liver, lesion: hepatocellular adenoma + hepatocellular carcinoma + neoplastic nodule, dosed 104 weeks, study length 104 weeks) of 0.000756 mg/kg/day. It also gave a TD50 (mouse, strain B6C3F1, females, by gavage, site: liver, lesion: hepatocellular adenoma + hepatocellular carcinoma, dosed 104 weeks, study length 104 weeks) of 0.000756 mg/kg/day, a TD50 (mouse, strain B6C3F1, females, by gavage, site: liver, lesion: hepatocellular carcinoma, dosed 104 weeks, study length 104 weeks) of 0.0013 mg/kg/day and a TD50 (mouse, strain B6C3F1, females, by gavage, site: subcutaneous tissue, lesion: fibrosarcoma, dosed 104 weeks, study length 104 weeks) of 0.00172 mg/kg/day. It also gave a TD50 (mouse, strain B6C3F1, females, by gavage, site: thyroid gland, lesion: follicular-cell adenoma, dosed 104 weeks, study length 104 weeks) of 0.00159 mg/kg/day, a TD50 (mouse, strain B6C3F1, males, by gavage, site: any site (literature study), lesion: several types, types named in the paper, dosed 104 weeks, study length 104 weeks) of 0.000141 mg/kg/day and a TD50 (mouse, strain B6C3F1, males, by gavage, site: liver, lesion: hepatocellular adenoma + hepatocellular carcinoma + neoplastic nodule, dosed 104 weeks, study length 104 weeks) of 8.68e-05 mg/kg/day. For the same molecule, the TD50 (mouse, strain B6C3F1, males, by gavage, site: liver, lesion: hepatocellular adenoma + hepatocellular carcinoma, dosed 104 weeks, study length 104 weeks) was 8.68e-05 mg/kg/day, the TD50 (mouse, strain B6C3F1, males, by gavage, site: liver, lesion: hepatocellular adenoma, dosed 104 weeks, study length 104 weeks) was 0.000271 mg/kg/day and the TD50 (mouse, strain B6C3F1, males, by gavage, site: liver, lesion: hepatocellular carcinoma, dosed 104 weeks, study length 104 weeks) was 0.000147 mg/kg/day. The TD50 (mouse, strain B6C3F1, males, by gavage, site: lung, lesion: alveolar/bronchiolar adenoma + alveolar/bronchiolar carcinoma, dosed 104 weeks, study length 104 weeks) was 0.000198 mg/kg/day, the TD50 (mouse, strain B6C3F1, males, by gavage, site: lung, lesion: alveolar/bronchiolar adenoma, dosed 104 weeks, study length 104 weeks) was 0.000219 mg/kg/day and the carcinogen call (mouse, strain Swiss/H/Riop, males, by gavage, site: liver, lesion: several types, types named in the paper, dosed 52 weeks, study length 104 weeks) was “positive”. The carcinogen call (mouse, strain Swiss/H/Riop, males, by gavage, site: lung, lesion: one or several types, types not named, dosed 52 weeks, study length 104 weeks) was “negative (inactive)”, the TD50 (rat, strain Osborne-Mendel, females, by gavage, site: any site (literature study), lesion: several types, types named in the paper, dosed 104 weeks, study length 105 weeks) was 0.00158 mg/kg/day and the TD50 (rat, strain Osborne-Mendel, females, by gavage, site: liver, lesion: hepatocellular adenoma + hepatocellular carcinoma + neoplastic nodule, dosed 104 weeks, study length 105 weeks) was 0.000127 mg/kg/day. The TD50 (rat, strain Osborne-Mendel, females, by gavage, site: liver, lesion: hepatocellular carcinoma + neoplastic nodule, dosed 104 weeks, study length 105 weeks) was 0.000127 mg/kg/day, the TD50 (rat, strain Osborne-Mendel, females, by gavage, site: liver, lesion: neoplastic nodule, dosed 104 weeks, study length 105 weeks) was 0.000154 mg/kg/day and the TD50 (rat, strain Osborne-Mendel, males, by gavage, site: adrenal gland, lesion: cortical adenoma, dosed 104 weeks, study length 105 weeks) was 1.21e-05 mg/kg/day. It also gave a TD50 (rat, strain Osborne-Mendel, males, by gavage, site: any site (literature study), lesion: several types, types named in the paper, dosed 104 weeks, study length 105 weeks) of 0.000133 mg/kg/day, a TD50 (rat, strain Osborne-Mendel, males, by gavage, site: liver, lesion: hepatocellular adenoma + hepatocellular carcinoma + neoplastic nodule, dosed 104 weeks, study length 105 weeks) of 0.000391 mg/kg/day and a TD50 (rat, strain Osborne-Mendel, males, by gavage, site: liver, lesion: hepatocellular carcinoma + neoplastic nodule, dosed 104 weeks, study length 105 weeks) of 0.000391 mg/kg/day. It also gave a TD50 (rat, strain Osborne-Mendel, males, by gavage, site: liver, lesion: neoplastic nodule, dosed 104 weeks, study length 105 weeks) of 0.000391 mg/kg/day, a TD50 (rat, strain Osborne-Mendel, males, by gavage, site: subcutaneous tissue, lesion: fibroma, dosed 104 weeks, study length 105 weeks) of 0.000169 mg/kg/day and a TD50 (rat, strain Osborne-Mendel, males, by gavage, site: thyroid gland, lesion: follicular-cell adenoma + follicular-cell carcinoma, dosed 104 weeks, study length 105 weeks) of 0.000101 mg/kg/day. For the same molecule, the TD50 (rat, strain Osborne-Mendel, males, by gavage, site: thyroid gland, lesion: follicular-cell adenoma, dosed 104 weeks, study length 105 weeks) was 0.000113 mg/kg/day, the TD50 (rat, strain Sprague-Dawley Spartan, females, in feed, site: hard palate/nasal turbinates, lesion: squamous-cell carcinoma, stratified, dosed 103 weeks, study length 103 weeks) was 0.000205 mg/kg/day and the TD50 (rat, strain Sprague-Dawley Spartan, females, in feed, site: liver, lesion: hepatocellular carcinoma, dosed 103 weeks, study length 103 weeks) was 6.51e-05 mg/kg/day. The TD50 (rat, strain Sprague-Dawley Spartan, females, in feed, site: liver, lesion: hepatocellular hyperplastic nodule, dosed 103 weeks, study length 103 weeks) was 6.67e-06 mg/kg/day, the TD50 (rat, strain Sprague-Dawley Spartan, females, in feed, site: liver, lesion: several types, types named in the paper, dosed 103 weeks, study length 103 weeks) was 1.49e-05 mg/kg/day and the TD50 (rat, strain Sprague-Dawley Spartan, females, in feed, site: lung, lesion: squamous-cell carcinoma, keratinized, dosed 103 weeks, study length 103 weeks) was 0.000192 mg/kg/day. For the same molecule, the TD50 (rat, strain Sprague-Dawley Spartan, males, in feed, site: adrenal gland, lesion: cortical adenoma, dosed 103 weeks, study length 103 weeks) was 0.000217 mg/kg/day, the TD50 (rat, strain Sprague-Dawley Spartan, males, in feed, site: hard palate/nasal turbinates, lesion: squamous-cell carcinoma, stratified, dosed 103 weeks, study length 103 weeks) was 0.000393 mg/kg/day and the TD50 (rat, strain Sprague-Dawley Spartan, males, in feed, site: tongue, lesion: squamous-cell carcinoma, stratified, dosed 103 weeks, study length 103 weeks) was 0.000628 mg/kg/day. For the same molecule, the TD50 (rat, strain Sprague-Dawley, males, in feed, site: liver, lesion: several types, types named in the paper, dosed 78 weeks, study length 95 weeks) was 8.31e-05 mg/kg/day and the TD50 (rat, strain Sprague-Dawley, males, in feed, site: lung, lesion: squamous-cell tumor, dosed 78 weeks, study length 95 weeks) was 7.96e-05 mg/kg/day.
With `CC(=O)OC[C@H]1O[C@@](COC(=O)C(C)C)(O[C@H]2O[C@H](COC(C)=O)[C@@H](OC(=O)C(C)C)[C@H](OC(=O)C(C)C)[C@H]2OC(=O)C(C)C)[C@@H](OC(=O)C(C)C)[C@@H]1OC(=O)C(C)C` the carcinogen call (mouse, strain B6C3F1, females, in feed, site: any site (literature study), lesion: several types, types named in the paper, dosed 104 weeks, study length 104 weeks) was “negative (inactive)”, the carcinogen call (mouse, strain B6C3F1, males, in feed, site: any site (literature study), lesion: several types, types named in the paper, dosed 104 weeks, study length 104 weeks) was “negative (inactive)” and the TD50 (rat, strain Fischer 344, females, in feed, site: any site (literature study), lesion: several types, types named in the paper, dosed 52 weeks, study length 52 weeks) was 3250 mg/kg/day (inactive). For the same molecule, the carcinogen call (rat, strain Fischer 344, females, in feed, site: any site (literature study), lesion: several types, types named in the paper, dosed 104 weeks, study length 104 weeks) was “negative (inactive)”, the TD50 (rat, strain Fischer 344, females, in feed, site: liver, lesion: hepatocellular adenoma, dosed 52 weeks, study length 52 weeks) was 3250 mg/kg/day (inactive) and the carcinogen call (rat, strain Fischer 344, males, in feed, site: any site (literature study), lesion: several types, types named in the paper, dosed 52 weeks, study length 52 weeks) was “negative (inactive)”. For the same molecule, the carcinogen call (rat, strain Fischer 344, males, in feed, site: any site (literature study), lesion: several types, types named in the paper, dosed 104 weeks, study length 104 weeks) was “negative (inactive)” and the carcinogen call (rat, strain Fischer 344, males, in feed, site: liver, lesion: one or several types, types not named, dosed 52 weeks, study length 52 weeks) was “negative (inactive)”.
`COc1ccccc1N1CCN(CCCNc2cc(=O)n(C)c(=O)n2C)CC1` was tested, and the carcinogen call (rat, strain Slc-Wistar, females, by gavage, site: liver, lesion: one or several types, types not named, dosed 52 weeks, study length 52 weeks) was “negative (inactive)” and the carcinogen call (rat, strain Slc-Wistar, males, by gavage, site: liver, lesion: one or several types, types not named, dosed 52 weeks, study length 52 weeks) was “negative (inactive)”.
`CNCc1ccc(CSCCNC(=NCC(O)c2ccc(O)cc2)NS(C)(=O)=O)o1` (stereo unspecified) was tested, and the carcinogen call (rat, strain Jcl:SD, females, by gavage, site: liver, lesion: one or several types, types not named, dosed 52 weeks, study length 52 weeks) was “negative (inactive)”, the carcinogen call (rat, strain Jcl:SD, females, by gavage, site: liver, lesion: one or several types, types not named, dosed 52 weeks, study length 56 weeks) was “negative (inactive)” and the carcinogen call (rat, strain Jcl:SD, males, by gavage, site: liver, lesion: one or several types, types not named, dosed 52 weeks, study length 52 weeks) was “negative (inactive)”. The carcinogen call (rat, strain Jcl:SD, males, by gavage, site: liver, lesion: one or several types, types not named, dosed 52 weeks, study length 56 weeks) was “negative (inactive)”.
`N#CN=C(N)N` was tested, and the carcinogen call (rat, strain F344/DuCrj, females, in feed, site: any site (literature study), lesion: several types, types named in the paper, dosed 104 weeks, study length 113 weeks) was “negative (inactive)”, the carcinogen call (rat, strain F344/DuCrj, females, in feed, site: liver, lesion: one or several types, types not named, dosed 104 weeks, study length 113 weeks) was “negative (inactive)” and the carcinogen call (rat, strain F344/DuCrj, males, in feed, site: any site (literature study), lesion: several types, types named in the paper, dosed 104 weeks, study length 113 weeks) was “negative (inactive)”. The TD50 (rat, strain F344/DuCrj, males, in feed, site: liver, lesion: hepatocellular adenoma, dosed 104 weeks, study length 113 weeks) was 109000 mg/kg/day (inactive) and the TD50 (rat, strain F344/DuCrj, males, in feed, site: subcutaneous tissue, lesion: lipoma, dosed 104 weeks, study length 113 weeks) was 15600 mg/kg/day (inactive).
